Assay results taken from ChEMBL document CHEMBL5537187, “Discovery of N-(1-(6-Oxo-1,6-dihydropyrimidine)-pyrazole) Acetamide Derivatives as Novel Noncovalent DprE1 Inhibitors against Mycobacterium tuberculosis” (J Med Chem, 2024).
Calls of active or inactive are those of the source. No cut-off for these calls is given here.

Test system: Mycolicibacterium smegmatis
Assay: Antimycobacterial activity against Mycobacterium smegmatis overexpressing Mtb DprE1 assessed as inhibition of bacterial growth by resazurin dye based analysis
Format: functional, organism-based

Question: How did the Activity turn out when `CO[C@H]1/C=C/O[C@@]2(C)Oc3c(C)c(O)c4c(O)c(c(/C=N/N5CCN(C)CC5)c(O)c4c3C2=O)NC(=O)/C(C)=C\C=C\[C@H](C)[C@H](O)[C@@H](C)[C@@H](O)[C@@H](C)[C@H](OC(C)=O)[C@@H]1C` [RIFAMPIN] was run?
Answer: Active
